Literature values, collected in US6117869A, “Compounds for and methods of inhibiting matrix metalloproteinases” (Warner-Lambert Company, priority 1999, dated 2000).

System: experimental allergic encephalomyelitis (EAE)
Settings: dose dependent; cited from earlier work

Compound: CNC(=O)[C@H](Cc1c[nH]c2ccccc12)NC(=O)[C@@H](CC(=O)NO)CC(C)C [GM6001]
- development or clinical expression of EAE: suppressed the development or reversed the clinical expression
